Like-named read-outs stand apart in the source and are kept apart here.
Key:
[1] = amide bond, 24-membered ring, 3 steps
RyR2 = target: T1, RyR2 (Mus musculus, UniProt E9Q401); conditions: 25 μM drug, normalized to vehicle (DMSO), mean ± standard deviation, ref Johnston et al. ACS Med. Chem. Lett., 2022, 13(11), 1755–1762, cited from earlier work; for Normalized Calcium Leak: CSV supplement, ent-verticilide and Series 1; for Calcium spark Amplitude (normalized to vehicle) / Calcium spark Leak (normalized to vehicle) / Calcium spark Mass (normalized to vehicle) / Calcium spark Frequency (normalized to vehicle): Supplement Table 1; for Calcium spark Amplitude (normalized to vehicle) / Calcium spark Leak (normalized to vehicle) / Calcium spark Mass (normalized to vehicle): permeabilized murine cardiomyocytes; for Calcium spark Frequency (normalized to vehicle): permeabilized murine left ventricular myocytes, 15 min incubation
T1 construct: ventricular cardiomyocytes were isolated from C57Bl/6J mice, adhered to laminin-coated glass bottom culture dishes, permeabilized with saponin; endogenous in cells; host or cells: left ventricular cardiomyocytes freshly isolated from C57BL/6J mice, saponin-permeabilized
T1 sequence (E9Q401 whole entry): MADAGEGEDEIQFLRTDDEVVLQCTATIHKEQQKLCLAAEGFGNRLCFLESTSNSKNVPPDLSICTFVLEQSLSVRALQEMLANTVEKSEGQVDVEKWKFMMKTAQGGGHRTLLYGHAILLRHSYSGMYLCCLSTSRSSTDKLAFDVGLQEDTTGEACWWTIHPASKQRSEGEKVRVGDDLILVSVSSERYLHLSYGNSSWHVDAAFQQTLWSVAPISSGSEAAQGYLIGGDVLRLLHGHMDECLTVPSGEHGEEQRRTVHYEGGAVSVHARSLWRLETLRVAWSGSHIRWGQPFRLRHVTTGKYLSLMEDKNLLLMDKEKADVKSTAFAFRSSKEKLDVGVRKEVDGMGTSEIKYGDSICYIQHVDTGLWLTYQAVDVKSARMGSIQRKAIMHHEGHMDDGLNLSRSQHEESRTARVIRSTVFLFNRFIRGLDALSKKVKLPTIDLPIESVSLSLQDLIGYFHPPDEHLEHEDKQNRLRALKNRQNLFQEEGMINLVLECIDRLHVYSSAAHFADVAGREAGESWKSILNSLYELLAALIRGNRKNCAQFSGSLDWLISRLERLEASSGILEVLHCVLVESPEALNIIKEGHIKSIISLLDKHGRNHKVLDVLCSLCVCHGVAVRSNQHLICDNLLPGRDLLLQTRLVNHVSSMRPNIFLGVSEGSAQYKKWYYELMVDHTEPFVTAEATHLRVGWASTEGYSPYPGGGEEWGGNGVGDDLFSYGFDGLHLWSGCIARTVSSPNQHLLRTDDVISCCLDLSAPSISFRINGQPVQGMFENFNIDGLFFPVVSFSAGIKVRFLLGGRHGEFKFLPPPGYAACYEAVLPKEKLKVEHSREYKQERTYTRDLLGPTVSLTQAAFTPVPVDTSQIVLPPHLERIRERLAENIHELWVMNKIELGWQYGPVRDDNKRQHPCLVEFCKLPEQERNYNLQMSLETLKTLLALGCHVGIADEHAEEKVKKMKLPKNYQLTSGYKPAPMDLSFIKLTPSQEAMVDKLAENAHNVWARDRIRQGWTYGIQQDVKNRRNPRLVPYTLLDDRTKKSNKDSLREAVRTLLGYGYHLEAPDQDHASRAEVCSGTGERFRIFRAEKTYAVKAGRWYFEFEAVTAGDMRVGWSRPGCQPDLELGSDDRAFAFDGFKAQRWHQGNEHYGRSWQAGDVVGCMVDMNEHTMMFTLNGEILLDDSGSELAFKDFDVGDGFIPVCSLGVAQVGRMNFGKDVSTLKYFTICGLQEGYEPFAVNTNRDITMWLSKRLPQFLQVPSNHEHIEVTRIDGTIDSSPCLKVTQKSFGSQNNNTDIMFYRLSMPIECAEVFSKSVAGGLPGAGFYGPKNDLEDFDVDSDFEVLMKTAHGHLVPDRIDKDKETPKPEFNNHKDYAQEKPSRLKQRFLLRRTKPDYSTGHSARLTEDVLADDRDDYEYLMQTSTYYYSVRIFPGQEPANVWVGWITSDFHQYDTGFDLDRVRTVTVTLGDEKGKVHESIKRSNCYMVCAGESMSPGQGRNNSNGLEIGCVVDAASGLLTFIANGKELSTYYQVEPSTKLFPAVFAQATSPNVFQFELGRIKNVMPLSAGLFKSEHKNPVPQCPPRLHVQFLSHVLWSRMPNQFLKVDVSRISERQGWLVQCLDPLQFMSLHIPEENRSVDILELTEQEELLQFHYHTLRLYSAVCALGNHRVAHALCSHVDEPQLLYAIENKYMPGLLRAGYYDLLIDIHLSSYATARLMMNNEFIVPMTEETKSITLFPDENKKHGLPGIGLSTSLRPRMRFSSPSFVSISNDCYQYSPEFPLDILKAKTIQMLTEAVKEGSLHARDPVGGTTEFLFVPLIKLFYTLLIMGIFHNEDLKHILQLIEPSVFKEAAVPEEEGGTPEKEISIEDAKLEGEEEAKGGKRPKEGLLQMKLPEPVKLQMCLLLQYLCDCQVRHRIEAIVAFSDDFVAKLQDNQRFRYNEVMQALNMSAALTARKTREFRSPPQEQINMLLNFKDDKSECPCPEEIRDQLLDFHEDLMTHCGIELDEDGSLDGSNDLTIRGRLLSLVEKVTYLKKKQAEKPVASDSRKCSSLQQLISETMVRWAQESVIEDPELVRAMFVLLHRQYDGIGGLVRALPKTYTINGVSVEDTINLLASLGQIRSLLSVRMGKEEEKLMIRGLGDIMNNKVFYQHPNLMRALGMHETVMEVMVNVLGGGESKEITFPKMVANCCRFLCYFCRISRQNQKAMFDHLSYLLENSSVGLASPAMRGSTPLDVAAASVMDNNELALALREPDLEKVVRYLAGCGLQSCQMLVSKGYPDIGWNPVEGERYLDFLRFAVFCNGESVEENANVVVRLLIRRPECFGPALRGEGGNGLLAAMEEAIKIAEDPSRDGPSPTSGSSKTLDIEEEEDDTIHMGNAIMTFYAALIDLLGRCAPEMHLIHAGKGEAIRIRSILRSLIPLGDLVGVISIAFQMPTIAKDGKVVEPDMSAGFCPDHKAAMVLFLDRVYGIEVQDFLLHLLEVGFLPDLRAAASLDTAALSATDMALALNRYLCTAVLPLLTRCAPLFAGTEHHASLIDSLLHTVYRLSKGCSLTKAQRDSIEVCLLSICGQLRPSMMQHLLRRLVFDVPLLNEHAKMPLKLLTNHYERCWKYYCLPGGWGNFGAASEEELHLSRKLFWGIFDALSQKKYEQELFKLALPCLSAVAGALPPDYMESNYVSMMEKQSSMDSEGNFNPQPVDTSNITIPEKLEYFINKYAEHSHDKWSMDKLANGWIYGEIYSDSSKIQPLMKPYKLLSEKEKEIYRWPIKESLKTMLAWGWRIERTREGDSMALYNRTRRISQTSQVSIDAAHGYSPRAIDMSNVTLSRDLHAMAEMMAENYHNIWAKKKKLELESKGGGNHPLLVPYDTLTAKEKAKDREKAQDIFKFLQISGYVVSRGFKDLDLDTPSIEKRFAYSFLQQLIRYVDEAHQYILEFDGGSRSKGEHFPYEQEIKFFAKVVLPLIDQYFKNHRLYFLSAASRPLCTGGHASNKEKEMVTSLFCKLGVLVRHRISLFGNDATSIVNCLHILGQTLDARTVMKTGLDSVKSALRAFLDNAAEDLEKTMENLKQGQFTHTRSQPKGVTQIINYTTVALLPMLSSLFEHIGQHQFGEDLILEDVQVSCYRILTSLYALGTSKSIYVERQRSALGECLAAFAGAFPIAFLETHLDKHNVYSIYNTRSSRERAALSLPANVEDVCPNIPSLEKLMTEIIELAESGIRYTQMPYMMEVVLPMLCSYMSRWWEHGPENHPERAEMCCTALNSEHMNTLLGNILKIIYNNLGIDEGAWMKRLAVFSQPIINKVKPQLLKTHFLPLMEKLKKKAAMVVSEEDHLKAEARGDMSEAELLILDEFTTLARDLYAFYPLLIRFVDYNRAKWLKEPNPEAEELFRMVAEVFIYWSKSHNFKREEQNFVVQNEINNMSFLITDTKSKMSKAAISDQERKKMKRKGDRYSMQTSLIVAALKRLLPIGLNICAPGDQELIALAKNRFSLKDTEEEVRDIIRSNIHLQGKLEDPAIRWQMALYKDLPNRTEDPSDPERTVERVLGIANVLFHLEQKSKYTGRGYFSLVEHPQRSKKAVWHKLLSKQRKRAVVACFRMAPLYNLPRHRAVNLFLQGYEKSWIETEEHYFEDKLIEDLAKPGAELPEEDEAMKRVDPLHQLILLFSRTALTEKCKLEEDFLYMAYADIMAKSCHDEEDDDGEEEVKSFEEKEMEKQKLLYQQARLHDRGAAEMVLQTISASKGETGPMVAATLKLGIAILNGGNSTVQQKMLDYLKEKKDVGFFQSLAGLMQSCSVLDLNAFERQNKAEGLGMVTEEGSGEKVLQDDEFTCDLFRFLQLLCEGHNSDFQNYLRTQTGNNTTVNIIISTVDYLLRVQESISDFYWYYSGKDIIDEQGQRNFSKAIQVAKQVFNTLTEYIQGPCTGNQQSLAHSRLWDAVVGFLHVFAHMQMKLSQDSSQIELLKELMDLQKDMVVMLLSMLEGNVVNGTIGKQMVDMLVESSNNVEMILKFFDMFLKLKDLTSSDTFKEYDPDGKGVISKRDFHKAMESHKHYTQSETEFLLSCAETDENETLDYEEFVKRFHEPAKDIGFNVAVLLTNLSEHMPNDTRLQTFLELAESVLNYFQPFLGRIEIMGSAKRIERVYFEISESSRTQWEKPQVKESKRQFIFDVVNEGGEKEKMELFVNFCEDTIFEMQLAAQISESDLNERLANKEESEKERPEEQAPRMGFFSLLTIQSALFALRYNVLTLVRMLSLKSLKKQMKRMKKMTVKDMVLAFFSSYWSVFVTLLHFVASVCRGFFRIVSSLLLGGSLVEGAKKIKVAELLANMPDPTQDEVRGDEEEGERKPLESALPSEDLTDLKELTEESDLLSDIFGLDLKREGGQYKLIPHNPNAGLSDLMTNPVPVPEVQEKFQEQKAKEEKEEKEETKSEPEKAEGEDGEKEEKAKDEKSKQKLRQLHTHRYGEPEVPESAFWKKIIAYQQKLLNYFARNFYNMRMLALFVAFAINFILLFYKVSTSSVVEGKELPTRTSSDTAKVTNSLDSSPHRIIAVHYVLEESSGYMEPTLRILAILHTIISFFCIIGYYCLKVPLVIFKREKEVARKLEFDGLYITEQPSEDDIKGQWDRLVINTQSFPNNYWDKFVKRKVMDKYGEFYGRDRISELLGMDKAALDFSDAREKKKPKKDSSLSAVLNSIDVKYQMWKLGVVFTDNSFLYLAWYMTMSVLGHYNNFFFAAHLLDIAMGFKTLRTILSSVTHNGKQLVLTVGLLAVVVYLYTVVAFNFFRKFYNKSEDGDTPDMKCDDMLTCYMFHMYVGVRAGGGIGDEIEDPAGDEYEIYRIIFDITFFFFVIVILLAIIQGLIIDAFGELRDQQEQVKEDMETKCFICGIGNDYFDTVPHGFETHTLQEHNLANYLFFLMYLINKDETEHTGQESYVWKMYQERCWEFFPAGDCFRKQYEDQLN
Protocol: Supplement jm4c00923_si_002.csv, table | column: Normalized Calcium Leak || page 10: Johnston et al. Supporting Information mouse variability provided by Sikkel et al.5 Bonferroni-adjusted P values are reported in the figure legends. A cutoff value of 0.05 was used as the threshold to reject the null hypothesis. Safety: No unexpected or unusually high safety hazards were encountered. Biological Experiment Data: Calcium spark parameters For all series, assay is run with 25 μM solution of drug. Values are normalized to the vehicle (DMSO) condition and reported as mean ± standard deviation. Statistical comparisons were made using a hierarchical clustering model with Bonf ...

[2] = the molecule shown is the open-chain precursor
[3] = the molecule shown is the open-chain precursor, PyBOP

Substance | ring closure, yield after HPLC [1, 2] [%] | also measured
(3R,6S,9R,12S,15R,18S,21R,24S)-3,4,9,10,15,16,19,21,22-nonamethyl-6,12,18,24-tetrapentyl-1,7,13-trioxa-4,10,16,19,22-pentaazacyclotetracosan-2,5,8,11,14,17,20,23-octaone | – | ring closure, yield after HPLC ([1]; PyBOP/DIPEA, DMF, 3.6 mM): 5.1%
(3R,6S,9R,12S,15R,18S,21R,24S)-3,4,9,10,15,16,21-heptamethyl-6,12,18,24-tetrapentyl-1,7,13,19-tetraoxa-4,10,16,22-tetraazacyclotetracosan-2,5,8,11,14,17,20,23-octaone [1.1] | – | Normalized Calcium Leak (RyR2): 1.02 ± 0.71; Calcium spark Amplitude (normalized to vehicle) (RyR2): 1.01 ± 0.25; Calcium spark Leak (normalized to vehicle) (RyR2): 1.02 ± 0.71; Calcium spark Mass (normalized to vehicle) (RyR2): 0.98 ± 0.59; Calcium spark Frequency (normalized to vehicle) (RyR2): 1.03 ± 0.27
(3R,6S,9R,12S,15R,18S,21R,24S)-3,4,9,15,16,21-hexamethyl-6,12,18,24-tetrapentyl-1,7,13,19-tetraoxa-4,10,16,22-tetraazacyclotetracosan-2,5,8,11,14,17,20,23-octaone [1.3] | – | Normalized Calcium Leak (RyR2): 0.90 ± 0.60; Calcium spark Amplitude (normalized to vehicle) (RyR2): 1.04 ± 0.28; Calcium spark Leak (normalized to vehicle) (RyR2): 0.90 ± 0.60; Calcium spark Mass (normalized to vehicle) (RyR2): 0.91 ± 0.48; Calcium spark Frequency (normalized to vehicle) (RyR2): 0.96 ± 0.29
(3R,6S,9R,12S,15R,18S,21R,24S)-3,4,9,15,21-pentamethyl-6,12,18,24-tetrapentyl-1,7,13,19-tetraoxa-4,10,16,22-tetraazacyclotetracosan-2,5,8,11,14,17,20,23-octaone [1.4] | – | Normalized Calcium Leak (RyR2): 0.77 ± 0.53; Calcium spark Amplitude (normalized to vehicle) (RyR2): 0.93 ± 0.24; Calcium spark Leak (normalized to vehicle) (RyR2): 0.77 ± 0.53; Calcium spark Mass (normalized to vehicle) (RyR2): 0.84 ± 0.32; Calcium spark Frequency (normalized to vehicle) (RyR2): 0.90 ± 0.36
(3S,6R,9S,12R,15S,18R,21S,24R)-1,6,7,12,13,18,19,24-Octamethyl-3,9,15,21-tetrapentyl-1,4,7,10,13,16,19,22-octaazacyclotetracosan-2,5,8,11,14,17,20,23-octaone | – | ring closure, yield after HPLC ([1]; PyBOP/DIEA, DMF, 4.6 mM, 0.0 °C): 11%
H-dAla-Hhp-dAla-Hhp-dAla-Hhp-dAla-Hhp-OH | 12 | –
H-dAla-Hhp-dAla-Hhp-dMeAla-Hhp-dMeAla-Hhp-OH? | – | ring closure, yield after HPLC [1, 3]: 11%
H-dAla-Hhp-dAla-MeAhp-dAla-Hhp-dAla-MeAhp-OH? | 6 | –
H-dAla-Hhp-dMeAla-Hhp-dMeAla-Hhp-dMeAla-Hhp-OH | – | ring closure, yield after HPLC [1, 3]: 18%
H-dAla-MeAhp-dAla-MeAhp-dAla-MeAhp-dAla-MeAhp-OH | 7 | –
H-dAla-MeAhp-dAla-MeAhp-dMeAla-MeAhp-dMeAla-MeAhp-OH? | 8 | –
H-dAla-MeAhp-dMeAla-MeAhp-dMeAla-MeAhp-dMeAla-MeAhp-OH? | 8 | –
H-dMeAla-Ahp-dMeAla-Hhp-dMeAla-Ahp-dMeAla-Hhp-OH | 10 | –
H-dMeAla-Hhp-dAla-Hhp-dAla-Hhp-dAla-Hhp-OH | 23 | –
H-dMeAla-Hhp-dMeAla-Ahp-dMeAla-Ahp-dMeAla-Ahp-OH? | 7 | –
H-dMeAla-Hhp-dMeAla-Hhp-dMeAla-Ahp-dMeAla-Ahp-OH? | 7 | –
H-dMeAla-Hhp-dMeAla-Hhp-dMeAla-Hhp-dMeAla-Ahp-OH | 6 | –
H-dMeAla-Hhp-dMeAla-Hhp-dMeAla-MeAhp-dMeAla-MeAhp-OH | 4 | –
H-dMeAla-MeAhp-dAla-MeAhp-dAla-MeAhp-dAla-MeAhp-OH | 5 | –
H-dMeAla-MeAhp-dAla-MeAhp-dMeAla-MeAhp-dAla-MeAhp-OH | 7 | –
H-dMeAla-MeAhp-dMeAla-Ahp-dMeAla-Ahp-dMeAla-Ahp-OH | 9 | –
H-dMeAla-MeAhp-dMeAla-Ahp-dMeAla-MeAhp-dMeAla-Ahp-OH | 7 | –
H-dMeAla-MeAhp-dMeAla-Hhp-dMeAla-Hhp-dMeAla-Hhp-OH | 5 | –
H-dMeAla-MeAhp-dMeAla-MeAhp-dMeAla-Ahp-dMeAla-Ahp-OH? | 6 | –
H-dMeAla-MeAhp-dMeAla-MeAhp-dMeAla-MeAhp-dMeAla-Ahp-OH? | 5 | –
H-dMeAla-MeAhp-dMeAla-MeAhp-dMeAla-MeAhp-dMeAla-Hhp-OH? | 16 | –
H-dMeAla-MeAhp-dMeAla-MeAhp-dMeAla-MeAhp-dMeAla-MeAhp-OH? | 8 | –

From publication PMC11284792, “Backbone-Determined Antiarrhythmic Structure–Activity Relationships for a Mirror Image, Oligomeric Depsipeptide Natural Product” (Journal of Medicinal Chemistry, 2024)
